Legend:
[1] = tested on: extracellular 5-HT in rat nucleus accumbens; experiment: Microdialysis in rat nucleus accumbens, dialysate 5-HT; format: in vivo; conditions: for increase of dialysate 5-HT above baseline: rat nucleus accumbens
Procedure: In vivo microdialysis procedures were carried out as previously described with minor modifications (Baumann et al., 2012). Briefly, male rats anaesthetized with sodium pentobarbital (60 mg·kg^−1, i.p.) received surgically implanted jugular catheters, and intracerebral guide cannulae aimed at the nucleus accumbens (AP +1.6 mm, ML −1.7 mm relative to bregma; −6.2 mm relative to dura) (Paxinos and Watson, 2007). After a 7–10 day recovery, each rat was placed into a chamber equipped with photobeams for the detection of motor parameters (TruScan, Harvard Apparatus, Holliston, MA, USA) and allowed to acclimatize overnight. Food and water were available ad libitum during the acclimatization period. On the following morning, catheters were attached to PE 50 extension tubes, and 0.5 × 2 mm microdialysis probes (CMA/12, Harvard Apparatus, Holliston, MA, USA) were inserted into the guide cannulae. Ringers' solution (150 mM NaCl, 2.8 mM KCl and 2.0 mM CaCl2) was perfused through the probes at 0.6 μL·min^−1 for 3 h. To commence experiments, dialysate samples ([…]) were collected at 20 min intervals, and drug or saline treatments were given after three baseline samples were obtained. Rats received two sequential i.v. injections of mephedrone or its metabolites, with 1 mg·kg^−1 administered at time zero, followed by 3 mg·kg^−1 60 min later. Saline was administered using the same schedule in a separate group of rats. Dialysate concentrations of dopamine and 5‐HT were quantified using HPLC coupled to electrochemical detection (Baumann et al., 2012). Chromatographic data were exported to an Empower software system (Waters, Inc., Milford, MA, USA) for peak identification, integration and analysis.
Correct probe placements were assessed after the microdialysis experiments. Rats were killed by CO2 narcosis then decapitated. Brains were quickly removed and immersion fixed in 10% paraformaldehyde for 1 week. Subsequently, brains were sectioned on a cryostat, and the location of each probe tip was verified by inspection of photographic images of the brain taken with a digital camera using the macro lens setting.
Calculations were performed using Microsoft Excel® 2010 (Microsoft Corporation, Redmond, WA, USA) and GRAPHPAD PRISM 5.0. (GraphPad Software Inc., La Jolla, CA, USA). IC50 values for uptake inhibition and EC50 values for release were determined by nonlinear regression fits. Release data expressed as AUC were analysed by one‐way ANOVA followed by Bonferroni's multiple comparison test. Microdialysis and locomotor data were analysed by two‐way ANOVA (drug treatment × time) followed by Bonferroni's test. The effect of monensin treatment on basal efflux of tritiated substrate was analysed with the Mann–Whitney test. P values less than 0.05 (i.e. P < 0.05) were considered significant. The data and statistical analysis comply with the recommendations on experimental design and analysis in pharmacology (Curtis et al., 2015).

[2] = molecular target: T1, hNET (Homo sapiens, UniProt P23975); experiment: Transporter release (superfusion) assay in HEK293 cells expressing hNET; format: cell-based; conditions: test drug 10 μM, monensin 10 μM; post hoc Bonferroni
T1 construct: expressed in transfected cells
Procedure: The generation of HEK293 cells stably expressing the human isoforms of DAT (hDAT) and NET (hNET) was carried out as described previously (Scholze et al., 2002). For SERT, the human isoform (hSERT) was cloned in frame with yellow fluorescent protein (Schmid et al., 2001). The generation of a stable cell line was performed as described by Hilber and colleagues (Hilber et al., 2005). HEK293 cells were maintained in humidified atmosphere (5% CO2, 37°C) in DMEM, supplemented with 10% heat‐inactivated FBS and penicillin (100 u 100 mL^−1) and streptomycin (100 μg 100 mL^−1). Selection pressure was maintained by adding geneticin (50 μg·mL^−1) to the cell culture media.
Superfusion experiments were performed as described previously (Scholze et al., 2002). Briefly, HEK293 cells expressing the desired transporter were seeded at a density of 40 000 cells per well onto poly‐D‐lysine‐coated 5 mm glass cover slips in 96‐well plates 24 h prior to the experiment. Cells were preloaded with [^3H]‐MPP^+ (0.1 μM, hDAT and hNET) or [^3H]‐5‐HT (0.4 μM, hSERT) for 20 min at 37°C in a final volume of 100 μL per well. Subsequently, glass coverslips were transferred into small superfusion chambers (volume of 200 μL) and superfused with KHB at 25°C with a superfusion rate of 0.7 mL·min^−1 for 40 min to establish a stable basal efflux. After washout, the collection of 2‐min fractions was initiated. After the first three basal fractions, monensin (10 μM) or solvent was added for four fractions. […] Finally, the cells were lysed in 1% SDS to determine the total radioactivity. Radioactivity per fraction was assessed by a liquid scintillation counter and expressed as fractional release, that is, the percentage of released ^3H in relation to total ^3H present at the beginning of the fraction (Sitte et al., 2000). For analysis, release was expressed as AUC.
Calculations were performed using Microsoft Excel® 2010 (Microsoft Corporation, Redmond, WA, USA) and GRAPHPAD PRISM 5.0. […] IC50 values for uptake inhibition and EC50 values for release were determined by nonlinear regression fits. Release data expressed as AUC were analysed by one‐way ANOVA followed by Bonferroni's multiple comparison test. Microdialysis and locomotor data were analysed by two‐way ANOVA (drug treatment × time) followed by Bonferroni's test. The effect of monensin treatment on basal efflux of tritiated substrate was analysed with the Mann–Whitney test. […]
Data from uptake inhibition assays cannot distinguish whether test drugs act as non‐transported inhibitors or transportable substrates, which evoke release (Scholze et al., 2000; Sitte et al., 2000; Baumann et al., 2013). […] As described previously, efflux of preloaded [^3H]‐MPP^+ or [^3H]‐5‐HT was monitored in the presence or absence of monensin (10 μM) (Scholze et al., 2000). […]

[3] = 3 mg·kg−1 i.v. (60 min after 1 mg·kg−1)

T1 sequence (P23975 whole entry, the tested form may be a part): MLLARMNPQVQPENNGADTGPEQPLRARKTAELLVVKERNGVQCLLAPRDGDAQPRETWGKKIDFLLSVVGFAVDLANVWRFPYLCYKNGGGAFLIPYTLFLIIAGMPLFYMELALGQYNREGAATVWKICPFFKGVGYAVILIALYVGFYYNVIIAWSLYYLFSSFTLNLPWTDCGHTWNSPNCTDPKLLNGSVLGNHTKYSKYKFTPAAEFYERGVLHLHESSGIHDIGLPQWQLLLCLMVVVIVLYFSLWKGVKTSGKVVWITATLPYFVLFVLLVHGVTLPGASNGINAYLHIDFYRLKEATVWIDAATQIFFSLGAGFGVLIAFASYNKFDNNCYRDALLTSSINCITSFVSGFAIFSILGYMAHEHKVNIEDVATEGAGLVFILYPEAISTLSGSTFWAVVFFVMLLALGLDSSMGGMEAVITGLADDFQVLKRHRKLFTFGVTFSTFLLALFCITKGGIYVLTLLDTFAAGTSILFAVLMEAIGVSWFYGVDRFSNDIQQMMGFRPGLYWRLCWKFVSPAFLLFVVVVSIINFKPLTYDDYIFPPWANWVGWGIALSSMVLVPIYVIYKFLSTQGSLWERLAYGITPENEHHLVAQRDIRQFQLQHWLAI

Compound	effect on extracellular neurotransmitters in the brain (5-HT) ([1]; systemic administration, 1 and 3 mg·kg−1 i.v., rat)	enhancement by monensin of drug-evoked [3H]-MPP+ release at hNET (AUC) [2]	increase of dialysate 5-HT above baseline ([1]; 1 mg·kg−1 i.v.)	increase of dialysate 5-HT above baseline [1, 3]
CNC(C)C(=O)c1ccc(CO)cc1.Cl (centres unmarked) [4‐OH‐mephedrone, 1‐(4‐(hydroxymethyl)phenyl)‐2‐(methylamino)propan‐1‐one hydrochloride]	no significant effect	significant	–	–
CNC(C)C(=O)c1ccc(C)cc1.Cl (centres unmarked) [Mephedrone, 2‐Methylamino‐1‐(p‐tolyl)propan‐1‐one hydrochloride]	–	significant	15 fold	25 fold
Cc1ccc(C(=O)C(C)N)cc1.Cl (centres unmarked) [Nor‐mephedrone, 2‐amino‐1‐(p‐tolyl)propan‐1‐one hydrochloride]	–	significant	15 fold	25 fold
